Among the test systems are HT29 colon; M14 melanoma; SK-MEL-2 melanoma; COLO 205 colon; LOX IMVI melanoma; CCRF-CEM leukemia; SNB-75 CNS; HCT-15 colon; HCC-2998 colon; MCF7 breast; SK-MEL-5 melanoma.
What all share (assay): NCI-60 cell line screen, 48 h

The structures appear in SMILES notation.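 Assay format: 96-well plates, 48-hour exposure. TGI marks complete inhibition of growth.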

With `O=C(/C=C1\C[C@H]2C=Nc3ccccc3C(=O)N2C1)NCCCCNC(=O)/C=C1\C[C@H]2C=Nc3ccccc3C(=O)N2C1`, the TGI in the assay on HT29 colon is 31.4 µM; with M14 melanoma, 19.5 µM; in the assay on SK-MEL-2 melanoma it was 29.2 µM; in the assay on COLO 205 colon, 14.8 µM; in the assay on LOX IMVI melanoma, 6.35 µM; in the assay on CCRF-CEM leukemia it was 4.82 µM. The TGI with SNB-75 CNS stood at 31.9 µM; with HCT-15 colon, 27.7 µM; in the assay with HCC-2998 colon, 32.9 µM; with MCF7 breast, 35.1 µM; in the assay with SK-MEL-5 melanoma, 27.1 µM.

Regarding `CN(C)Cc1cc(C(C)(C)C)ccc1-c1ccc(C(C)(C)C)cc1CN(C)C`, the TGI with HT29 colon, in the assay on M14 melanoma, in the assay on SK-MEL-2 melanoma, in the assay with COLO 205 colon, in the assay with LOX IMVI melanoma and in the assay on CCRF-CEM leukemia was more than 100 µM each time. Further, the TGI is more than 100 µM with SNB-75 CNS; more than 100 µM with HCT-15 colon; 23.5 µM with HCC-2998 colon; more than 100 µM in the assay with MCF7 breast; more than 100 µM in the assay with SK-MEL-5 melanoma.

As to `Cc1ccc2c(c1)C(=O)N1CCC[C@H]1C=N2`, the TGI is more than 55.6 µM in the assay on HT29 colon; 47.8 µM in the assay with M14 melanoma; 34.9 µM with SK-MEL-2 melanoma; 37.8 µM in the assay on COLO 205 colon; more than 100 µM with LOX IMVI melanoma; 22.6 µM with CCRF-CEM leukemia. For the same compound, the TGI with HCT-15 colon is more than 76.4 µM; in the assay with HCC-2998 colon it was 45.6 µM; in the assay with MCF7 breast, more than 76.5 µM; in the assay with SK-MEL-5 melanoma, 26.7 µM.

In the case of `COc1cc(C=C2C(C)=NN(c3cccc(Cl)c3)C23C(Cl)C(=O)N3c2nc3ccccc3s2)ccc1O` (stereo unspecified), the TGI came to 26.7 µM in the assay with HT29 colon; 41.9 µM in the assay with M14 melanoma; 36.3 µM in the assay on SK-MEL-2 melanoma; 40.2 µM in the assay on LOX IMVI melanoma; 38.8 µM in the assay with CCRF-CEM leukemia; 52.2 µM with HCT-15 colon. For the same compound, the figures for the TGI in the assay with HCC-2998 colon, in the assay with MCF7 breast and with SK-MEL-5 melanoma were 9.16 µM, more than 100 µM and 36.9 µM, respectively.

On to `CCN(CC)CCCn1c(=O)c2ccccc2n2c3c(=O)n(C)c(=O)n(C)c3nc12`, for which the TGI with HT29 colon was 24 µM; in the assay with M14 melanoma, 25.1 µM; with SK-MEL-2 melanoma, 35 µM; in the assay on COLO 205 colon it was 20.6 µM; in the assay with LOX IMVI melanoma, 15.4 µM; in the assay with CCRF-CEM leukemia it was 35 µM. For the same compound, the TGI is 18.6 µM in the assay on SNB-75 CNS; 25.4 µM in the assay on HCT-15 colon; 22 µM in the assay on HCC-2998 colon; more than 100 µM with MCF7 breast; 15 µM in the assay with SK-MEL-5 melanoma.

With `Cc1ccc2c(sc(-c3ccc4c(c3)sc(-c3ccc5c(c3)sc(-c3ccc(N(C)C)cc3)[n+]5C)[n+]4C)[n+]2C)c1S(=O)(=O)O` (tested in a mixture with another compound), the TGI with HT29 colon, in the assay on M14 melanoma, in the assay on SK-MEL-2 melanoma, with COLO 205 colon, in the assay with LOX IMVI melanoma and in the assay with SNB-75 CNS was more than 100 µM throughout. Further, the TGI in the assay with HCT-15 colon, in the assay on HCC-2998 colon, in the assay with MCF7 breast and with SK-MEL-5 melanoma was more than 100 µM throughout.

On to `Oc1ccccc1C=Nc1ccc(-c2nc3ccccc3[nH]2)cc1`, for which the TGI in the assay with HT29 colon was more than 100 µM; with M14 melanoma it was more than 100 µM; in the assay with SK-MEL-2 melanoma it was more than 100 µM; with COLO 205 colon, more than 100 µM; with LOX IMVI melanoma, more than 100 µM; in the assay with CCRF-CEM leukemia, 71.5 µM. In addition, the TGI in the assay on SNB-75 CNS, in the assay on HCT-15 colon, in the assay on MCF7 breast and in the assay with SK-MEL-5 melanoma was more than 100 µM in each case.

For `N#CC(C#N)=C(N)/C(C#N)=C/c1ccc2ccccc2n1`, the TGI in the assay on HT29 colon was 35.9 µM; in the assay with M14 melanoma, more than 100 µM; with SK-MEL-2 melanoma, more than 100 µM; in the assay with LOX IMVI melanoma it was 46 µM; with CCRF-CEM leukemia, more than 100 µM; in the assay on SNB-75 CNS, more than 100 µM. For the same compound, the TGI with HCT-15 colon is 80.1 µM; in the assay with HCC-2998 colon it was more than 100 µM; with MCF7 breast, more than 100 µM; with SK-MEL-5 melanoma it was 51 µM.

For `OC[C@]1(n2nc3ccccc3n2)OC[C@@H]1c1ccccc1`, the TGI in the assay on HT29 colon, in the assay on M14 melanoma, with SK-MEL-2 melanoma, in the assay on COLO 205 colon, in the assay on LOX IMVI melanoma and in the assay on CCRF-CEM leukemia was more than 100 µM throughout. Also, the TGI with HCT-15 colon, in the assay with HCC-2998 colon, in the assay on MCF7 breast and in the assay with SK-MEL-5 melanoma was more than 100 µM throughout.

For `COc1ccc(/C=C2\CCC(C)/C(=C\c3ccc(OC)c(OC)c3)C2=O)cc1OC` (stereo unspecified), the TGI in the assay on HT29 colon turned out to be 52.9 µM; with M14 melanoma it was 31.2 µM; in the assay on SK-MEL-2 melanoma, 25.3 µM; in the assay with COLO 205 colon, 54.2 µM; in the assay on LOX IMVI melanoma it was 19.2 µM; in the assay with CCRF-CEM leukemia, 7.6 µM. The TGI in the assay on HCT-15 colon was 21.2 µM; in the assay with MCF7 breast, 22.3 µM; with SK-MEL-5 melanoma it was 17.5 µM.

Take `CC1(C)CC(=O)C2=C(C1)NC1=C(C(=O)CC(C)(C)C1)C2c1ccc([N+](=O)[O-])cc1`: the TGI was more than 100 µM in the assay with HT29 colon; more than 100 µM in the assay with M14 melanoma; more than 100 µM in the assay on SK-MEL-2 melanoma; more than 100 µM with COLO 205 colon; more than 100 µM in the assay with LOX IMVI melanoma; 69.6 µM in the assay on SNB-75 CNS. The TGI with HCT-15 colon, with HCC-2998 colon, with MCF7 breast and in the assay with SK-MEL-5 melanoma was more than 100 µM in each case.

With `CCCCOC(=O)NC(Nc1cccc(C(F)(F)F)c1)(C(F)(F)F)C(F)(F)F`, the TGI in the assay on HT29 colon was more than 100 µM; with M14 melanoma, more than 100 µM; in the assay with SK-MEL-2 melanoma, 99.1 µM; with COLO 205 colon it was more than 100 µM; in the assay on LOX IMVI melanoma it was more than 100 µM; in the assay with CCRF-CEM leukemia, more than 100 µM. The TGI with SNB-75 CNS, with HCT-15 colon, in the assay with MCF7 breast and with SK-MEL-5 melanoma was more than 100 µM in each case.

For `CC=CCOc1cc(NC(=S)OC(C)C)ccc1Cl` (mixture of isomers), the TGI in the assay on HT29 colon is 28.7 µM; in the assay with M14 melanoma, 63.3 µM; in the assay on SK-MEL-2 melanoma, 28.6 µM; in the assay on COLO 205 colon it was 33.3 µM; with LOX IMVI melanoma, 35.8 µM; with CCRF-CEM leukemia, 64.3 µM. Moreover, the TGI came to 33.7 µM in the assay on HCT-15 colon, 30.3 µM with HCC-2998 colon, 38.2 µM in the assay with MCF7 breast and 33.1 µM with SK-MEL-5 melanoma.

Values taken from PubChem BioAssay (NCI).
